These results are taken from patent publication US11331282B2, “Ophthalmic composition containing clathrated antioxidant substance, and use thereof” (TK Health Research, Co. Ltd., priority 2017, dated 2022).

In one series the test system is dry eye mouse model. Put plainly: Change in tear volume by Schirmer's test in BAC dry eye mouse model. Format: in vivo. To be noted: oral intake 200 mg/kg, two weeks, Day 28, Example 2. As for the experimental part:
A dry eye mouse model was created by eye drop treatment with benzalkonium chloride (also denoted as BAC).
After two weeks of continuous BAC treatment of mice, additional BAC treatment and eye drop treatment with water soluble astaxanthin or water soluble control (vehicle, γ-cyclodextrin only) were continued for two weeks. A group of mice applied with only PBS eye drops was used as a […].
The change in the tear volume in the mouse model was measured by Schirmer's test. The tear volume was determined as a relative tear volume (normal tear volume (filter moving distance): 7.17±1.35 mm) when normal tear volume was 100. Statistical processing: ANOVA, Student's t-test.
A dry eye mouse model was created in the same manner described in Example 1. […] The change in tear volume was measured by Schirmer's test in the same manner as Example 1. The goblet cells were also counted in the same manner as Example 1.
A dry eye mouse model was created in the same manner as Example 1. Subsequently, water-soluble astaxanthin eye drops and DMSO dissolved astaxanthin eye drops were applied for two weeks, and the change in the tear volume was measured by Schirmer's test in the same manner as Example 1. The goblet cells were also counted in the same manner as Example 1. […]
A change in the tear volume in the mouse model is measured by Schirmer's test. […]

Series [1] has as its system ocular surface goblet cells of a dry eye mouse model. Put plainly: Goblet cell count by PAS stain in BAC dry eye mouse model. The format is in vivo. As to conditions: oral administration for two weeks. On the procedure:
To find the effect of astaxanthin eye drops on ocular surface goblet cells of a dry eye mouse model, histological analysis was performed after two weeks of astaxanthin eye drops, and the number of goblet cells was counted by counting the cells stained red by PAS stain.
A dry eye mouse model was created in the same manner described in Example 1. Subsequently, astaxanthin eye drops were applied and astaxanthin was orally administered (oral intake astaxanthin, also denoted as oAsx) for two weeks. The change in tear volume was measured by Schirmer's test in the same manner as Example 1. The goblet cells were also counted in the same manner as Example 1.
A dry eye mouse model was created in the same manner as Example 1. Subsequently, water-soluble astaxanthin eye drops and DMSO dissolved astaxanthin eye drops were applied for two weeks, and the change in the tear volume was measured by Schirmer's test in the same manner as Example 1. The goblet cells were also counted in the same manner as Example 1.
A change in the tear volume in the mouse model is measured by Schirmer's test. The tear volume is determined as a relative tear volume (normal tear volume (filter moving distance): 7.17±1.35 mm) when normal tear volume is 100. Statistical processing: ANOVA, Student's t-test. […]

A short description of series [2]: Solubilization testing by filtration (colour of filtrate, 0.45 μm filter). Format: physicochemical.
Experimental: The astaxanthin concentration in the filtrate can be measured by measuring the absorbance of the wavelength 478 nm using an absorption (spectrophoto)meter. […] Astaxanthin was dissolved in DMSO, and the final concentration was adjusted to 6.25, 12.5, 25, 50, and 100 μg/ml with Milli-Q water. After 0 point correction with a solvent, 480 nm absorbance of each astaxanthin solution was measured, and calibration curves were drawn. The concentration of water soluble astaxanthin solution was found from the 480 nm absorbance measurement value of the water soluble astaxanthin solution based thereon. […] Solubilization of lycopene and canthaxanthin was confirmed by filtration with a 0.45 μm filter.

Regarding `CC1=C(/C=C/C(C)=C/C=C/C(C)=C/C=C/C=C(C)/C=C/C=C(C)/C=C/C2=C(C)C(=O)[C@@H](O)CC2(C)C)C(C)(C)C[C@H](O)C1=O` [astaxanthin], the “tear volume (relative to normal tear volume)” value in the series with dry eye mouse model is “increased only slightly”. Besides, in series [1], the goblet cell count result is given as “recovery in the goblet cell count was not observed”.

canthaxanthin: in series [2], the “solubilization in aqueous solvent (remains in filtrate after filtration)” value was “Successful water-solubilization”.
